Assay results reported in paper PMC5113906, “Ligand autoradiographical quantification of histamine H3 receptor in human dementia with Lewy bodies” (Pharmacological Research, 2016).

Target: T1, histamine H3 receptor (hH3R 445) (Homo sapiens, UniProt Q9Y5N1)
T1 construct: gene HRH3; hH3 445 isoform (also hH3 365), transiently expressed in HEK293 cells
Test: [3H]GSK189254 saturation radioligand binding; autoradiography on human brain sections

T1 sequence (Q9Y5N1 whole entry, canonical isoform): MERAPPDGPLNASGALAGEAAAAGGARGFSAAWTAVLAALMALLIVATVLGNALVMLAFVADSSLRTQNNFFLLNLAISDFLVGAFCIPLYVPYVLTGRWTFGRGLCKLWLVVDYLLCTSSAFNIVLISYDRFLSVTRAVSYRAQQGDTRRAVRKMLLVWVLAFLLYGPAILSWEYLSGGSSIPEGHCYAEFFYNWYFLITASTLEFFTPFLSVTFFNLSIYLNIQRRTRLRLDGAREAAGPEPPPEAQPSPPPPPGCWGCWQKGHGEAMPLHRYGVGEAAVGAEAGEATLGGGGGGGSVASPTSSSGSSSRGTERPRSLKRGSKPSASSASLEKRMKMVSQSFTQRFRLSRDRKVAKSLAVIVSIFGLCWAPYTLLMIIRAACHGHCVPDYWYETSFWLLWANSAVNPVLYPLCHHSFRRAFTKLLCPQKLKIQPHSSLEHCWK

For CNC(=O)c1ccc(Oc2ccc3c(c2)CCN(C2CCC2)CC3)nc1 [GSK189254], the Kd was 0.16 ± 0.04 nM.
